Legend:
V600E-mutated B-RAF = V600E-mutated B-RAF (Homo sapiens, UniProt P15056, V600E); assay: In vitro assay for inhibition of mutant B-RAF kinase (recombinant V600E-mutated B-RAF, MEK (K97R) substrate); format: biochemical; settings: 10 nM recombinant V600E-mutated B-RAF
Experimental: (§1) The ability of compounds described herein to inhibit RAF kinase activity were determined from biochemical kinase inhibition assays using recombinant RAF proteins as known in the art.
Solutions of varying concentrations of test compounds or vehicle were added to 10 nM recombinant V600E-mutated B-RAF proteins incubated in the presence of different concentrations of ATP and […] (K97R) as substrate, as previously described (Wilhelm, S. M., et al., Cancer Res., 64: 7099-7109, 2004; Mason, C. S., et al.; EMBO J. 18: 2137-2.148, 1999; Marais, R., et al., J. Biol. Chem., 272: 4378-4383, 1997). At least triplicate determinations for each individual test compound concentration were made and data plotted as mean±standard deviation relative to the control vehicle.

wild-type C-RAF = wild-type C-RAF (Homo sapiens, UniProt P04049); assay: In vitro assay for inhibition of RAF kinases (recombinant wild-type C-RAF, MEK (K97R) substrate); format: biochemical; settings: 10 nM recombinant wild-type C-RAF
wild-type C-RAF, sequence (P04049 whole entry): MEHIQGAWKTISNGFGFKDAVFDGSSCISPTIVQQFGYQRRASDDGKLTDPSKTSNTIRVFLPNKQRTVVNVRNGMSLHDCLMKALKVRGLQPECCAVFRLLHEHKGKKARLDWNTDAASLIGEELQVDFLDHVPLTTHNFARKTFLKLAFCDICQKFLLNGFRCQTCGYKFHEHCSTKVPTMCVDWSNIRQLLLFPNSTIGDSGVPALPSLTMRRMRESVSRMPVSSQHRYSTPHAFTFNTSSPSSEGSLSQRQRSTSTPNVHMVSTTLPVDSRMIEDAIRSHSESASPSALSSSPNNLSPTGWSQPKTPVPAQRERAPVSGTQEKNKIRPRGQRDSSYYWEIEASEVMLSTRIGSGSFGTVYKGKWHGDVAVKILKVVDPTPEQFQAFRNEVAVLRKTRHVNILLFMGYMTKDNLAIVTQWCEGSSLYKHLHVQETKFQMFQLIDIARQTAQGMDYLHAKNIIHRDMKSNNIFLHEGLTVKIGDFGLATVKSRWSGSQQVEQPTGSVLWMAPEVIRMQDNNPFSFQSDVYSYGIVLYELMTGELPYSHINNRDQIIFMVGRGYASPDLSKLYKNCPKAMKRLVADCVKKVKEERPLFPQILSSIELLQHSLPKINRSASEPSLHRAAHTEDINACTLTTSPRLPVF
Experimental: as §1
Solutions of varying concentrations of test compounds or vehicle were added to 10 nM recombinant wild-type A-RAF, wild-type B-RAF, or wild-type C-RAF proteins incubated in the presence of different concentrations of ATP and 1 μM MEK (K97R) as substrate, as previously described (Wilhelm, S. M., et al., Cancer Res., 64: 7099-7109, 2004; Mason, C S., et al., EMBO J. 18: 2137-2148, 1999; Marais, R., et al., J. Biol. Chem., 272: 4378-4383, 1997). At least triplicate determinations for each individual test compound concentration were made and data plotted as mean±standard deviation relative to the control vehicle.

[1] = tested on: A375 cells (V600E activated B-RAF); assay: In vitro tumor cell growth inhibition, MTT, 72 hours; format: cell-based; settings: Homo sapiens, A-375, 72 hours incubation
Experimental: Briefly, growth inhibition of cells containing V600E activated B-RAF (A375, Colo205) versus cell lines with wild-type B-RAF (A431) were measured under anchorage-dependent conditions using MTT (3-(4,5-dimethylthiazol-2-yl)-2,5-diphenyltetrazolium bromide), following 72 hours incubation with either compound or vehicle, as previously described (Haass, N. K., et al., Clinical Cancer Res., 14: 230-239, 2008): Cell lines are obtained from the American Type Tissue Culture Collection (Maryland, USA) and cultured in media containing heat-inactivated 10% fetal bovine serum. Cell cultures were also maintained in 10 U/mL, penicillin, 100 μg/mL streptomycin and 2 mM glutamine. At least triplicate determinations for each individual test compound concentration were made and data plotted as mean±standard deviation relative to the control vehicle.

V600E-mutated B-RAF, sequence (P15056 whole entry V600E): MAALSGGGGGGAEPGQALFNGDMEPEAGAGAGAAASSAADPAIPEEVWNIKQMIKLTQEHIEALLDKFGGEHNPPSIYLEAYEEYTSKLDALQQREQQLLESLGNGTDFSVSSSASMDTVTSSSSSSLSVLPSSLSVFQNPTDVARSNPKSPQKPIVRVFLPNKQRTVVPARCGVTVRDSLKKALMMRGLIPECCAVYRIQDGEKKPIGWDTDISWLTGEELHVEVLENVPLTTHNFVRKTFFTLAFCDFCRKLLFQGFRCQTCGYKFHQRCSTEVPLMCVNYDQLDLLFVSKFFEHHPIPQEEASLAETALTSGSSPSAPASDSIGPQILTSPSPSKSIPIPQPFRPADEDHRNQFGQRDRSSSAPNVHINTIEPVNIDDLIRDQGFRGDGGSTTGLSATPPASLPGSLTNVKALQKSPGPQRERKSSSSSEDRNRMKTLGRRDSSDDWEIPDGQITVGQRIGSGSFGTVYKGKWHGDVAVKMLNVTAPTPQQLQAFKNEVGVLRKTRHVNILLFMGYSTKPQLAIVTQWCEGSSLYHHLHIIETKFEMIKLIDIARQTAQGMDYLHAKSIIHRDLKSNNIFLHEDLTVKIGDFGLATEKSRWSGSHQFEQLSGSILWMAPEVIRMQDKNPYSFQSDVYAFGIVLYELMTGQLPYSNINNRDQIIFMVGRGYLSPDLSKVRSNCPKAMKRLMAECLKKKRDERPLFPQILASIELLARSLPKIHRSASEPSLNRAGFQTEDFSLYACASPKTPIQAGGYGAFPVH

| IC50 (V600E-mutated B-RAF) [µM] | IC50 (wild-type C-RAF) [µM] | IC50 [1] [µM] | SMILES |
| --- | --- | --- | --- |
| ≤ 0.1 | – | > 10 | Cc1nc(-c2ccncc2)c(-c2cccc(NC(=O)Nc3ccc(S(C)(=O)=O)cc3)c2)s1 [Example 17, 1-(3-(2-methyl-4-(pyridin-4-yl)thiazol-5-yl)phenyl)-3-(4-(methylsulfonyl)phenyl)urea] |
| ≤ 0.1 | – | 1 to 10 | Cc1nc(-c2ccnc(N)c2)c(-c2cccc(NC(=O)Nc3ccc(Cl)cc3)c2)s1 [Example 21, 1-(3-(4-(2-aminopyridin-4-yl)-2-methylthiazol-5-yl)phenyl)-3-(4-chlorophenyl)urea] |
| ≤ 0.1 | – | > 10 | Cc1ccc(NC(=O)Cc2cccc(-c3sc(C)nc3-c3ccncc3)c2)cc1 [Example 47, 2-(3-(2-methyl-4-(pyridin-4-yl)thiazol-5-yl)phenyl)-N-p-tolylacetamide] |
| ≤ 0.1 | – | 1 to 10 | Cc1nc(-c2ccncc2)c(-c2ccc(F)c(NC(=O)Nc3cccc(Cl)c3)c2)s1 [Example 13, 1-(3-chlorophenyl)-3-(2-fluoro-5-(2-methyl-4-(pyridin-4-yl)thiazol-5-yl)phenyl)urea] |
| ≤ 0.1 | – | 1 to 10 | CCn1cc(-c2ccc(F)c(NC(=O)Nc3ccc(Cl)cc3)c2)c(-c2ccncc2)n1 [Example 48, 1-(4-chlorophenyl)-3-(5-(1-ethyl-3-(pyridin-4-yl)-1H-pyrazol-4-yl)-2-fluorophenyl)urea] |
| ≤ 0.1 | – | 1 to 10 | Cc1nc(-c2ccnc(N)c2)c(-c2ccc(F)c(NC(=O)Nc3ccc(Cl)cc3)c2)s1 [Example 22, 1-(5-(4-(2-aminopyridin-4-yl)-2-methylthiazol-5-yl)-2-fluorophenyl)-3-(4-chlorophenyl)urea] |
| ≤ 0.1 | – | > 10 | Cc1nc(-c2ccnc(N)c2)c(-c2cccc(NC(=O)Nc3ccc(C(F)(F)F)cc3)c2)s1 [Example 26, 1-(3-(4-(2-aminopyridin-4-yl)-2-methylthiazol-5-yl)phenyl)-3-(4-(trifluoromethyl)phenyl)urea] |
| 0.1 to 1 | – | 1 to 10 | Cc1nc(-c2ccncc2)c(-c2cccc(NC(=O)Nc3ccc(C(F)(F)F)cc3)c2F)s1 [Example 15, 1-(2-fluoro-3-(2-methyl-4-(pyridin-4-yl)thiazol-5-yl)phenyl)-3-(4-(trifluoromethyl)phenyl)urea] |
| ≤ 0.1 | 1 to 10 | 0.1 to 1 | CCn1cc(-c2cccc(NC(=O)Nc3ccc(C(F)(F)F)cc3)c2F)c(-c2ccncc2)n1 [Example 50, 1-(3-(1-ethyl-3-(pyridin-4-yl)-1H-pyrazol-4-yl)-2-fluorophenyl)-3-(4-(trifluoromethyl)phenyl)urea] |
| ≤ 0.1 | – | > 10 | CCn1cc(-c2cccc(NC(=O)Nc3ccc(S(=O)(=O)N4CCOCC4)cc3)c2)c(-c2ccncc2)n1 [Example 59, 1-(3-(1-ethyl-3-(pyridin-4-yl)-1H-pyrazol-4-yl)phenyl)-3-(4-(morpholinosulfonyl)phenyl)urea] |
| ≤ 0.1 | – | 0.1 to 1 | CCn1cc(-c2cccc(NC(=O)Nc3ccc(Cl)cc3)c2F)c(-c2ccncc2)n1 [Example 49, 1-(4-chlorophenyl)-3-(3-(1-ethyl-3-(pyridin-4-yl)-1H-pyrazol-4-yl)-2-fluorophenyl)urea] |

Further lines, the compound ahead of its results:

| SMILES | IC50 (V600E-mutated B-RAF) [µM] | IC50 (wild-type C-RAF) [µM] | IC50 [1] [µM] |
| --- | --- | --- | --- |
| Cc1ccc(NC(=O)Nc2cc(-c3sc(C)nc3-c3ccncc3)ccc2F)cc1 [Example 7, 1-(2-fluoro-5-(2-methyl-4-(pyridin-4-yl)thiazol-5-yl)phenyl)-3-p-tolylurea] | ≤ 0.1 | 0.1 to 1 | 1 to 10 |
| CCn1cc(-c2cccc(N3CCN(c4ccc(C(F)(F)F)cc4)C3=O)c2)c(-c2ccncc2)n1 [Example 53, 1-(3-(1-ethyl-3-(pyridin-4-yl)-1H-pyrazol-4-yl)phenyl)-3-(4-(trifluoromethyl)phenyl)imidazolidin-2-one] | ≤ 0.1 | – | 1 to 10 |
| Cc1nc(-c2ccncc2)c(-c2ccc(F)c(NC(=O)Nc3ccc(C(F)(F)F)cc3)c2)s1 [Example 14, 1-(2-fluoro-5-(2-methyl-4-(pyridin-4-yl)thiazol-5-yl)phenyl)-3-(4-(trifluoromethyl)phenyl)urea] | ≤ 0.1 | – | 1 to 10 |
| Cc1nc(-c2ccnc(N)c2)c(-c2cccc(NC(=O)Nc3ccc(C(F)(F)F)cc3)c2F)s1 [Example 24, 1-(3-(4-(2-aminopyridin-4-yl)-2-methylthiazol-5-yl)-2-fluorophenyl)-3-(4-(trifluoromethyl)phenyl)urea] | 0.1 to 1 | – | 0.1 to 1 |
| Cc1ccc(NC(=O)Nc2cccc(-c3sc(C)nc3-c3ccnc(N)c3)c2)cc1 [Example 20, 1-(3-(4-(2-aminopyridin-4-yl)-2-methylthiazol-5-yl)phenyl)-3-p-tolylurea] | ≤ 0.1 | – | 1 to 10 |
| Cc1nc(-c2ccncc2)c(-c2cccc(NC(=O)Nc3ccc(Cl)cc3)c2)s1 [Example 3, 1-(4-chlorophenyl)-3-(3-(2-methyl-4-(pyridin-4-yl)thiazol-5-yl)phenyl)urea] | ≤ 0.1 | – | 1 to 10 |
| CCn1cc(-c2cccc(NC(=O)Nc3ccc(S(=O)(=O)CC)cc3)c2)c(-c2ccncc2)n1 [Example 54, 1-(3-(1-ethyl-3-(pyridin-4-yl)-1H-pyrazol-4-yl)phenyl)-3-(4-(ethylsulfonyl)phenyl)urea] | ≤ 0.1 | – | 1 to 10 |
| Cc1nc(-c2ccncc2)c(-c2ccc(F)c(NC(=O)Nc3cccc(C(F)(F)F)c3)c2)s1 [Example 16, 1-(2-fluoro-5-(2-methyl-4-(pyridin-4-yl)thiazol-5-yl)phenyl)-3-(3-(trifluoromethyl)phenyl)urea] | ≤ 0.1 | – | > 10 |
| CCn1cc(-c2cccc(NC(=O)Nc3cccc(S(C)(=O)=O)c3)c2)c(-c2ccncc2)n1 [Example 55, 1-(3-(1-ethyl-3-(pyridin-4-yl)-1H-pyrazol-4-yl)phenyl)-3-(3-(methylsulfonyl)phenyl)urea] | ≤ 0.1 | – | > 10 |
| CCn1cc(-c2cccc(N(O)C(=O)Nc3ccc(C(F)(F)F)cc3)c2)c(-c2ccncc2)n1 [Example 63, 1-(3-(1-ethyl-3-(pyridin-4-yl)-1H-pyrazol-4-yl)phenyl)-1-hydroxy-3-(4-(trifluoromethyl)phenyl)urea] | ≤ 0.1 | – | 1 to 10 |
| O=C(Nc1ccc(C(F)(F)F)cc1)Nc1cc(-c2sc(NCCN3CCOCC3)nc2-c2ccncc2)ccc1F [Example 35, 1-(2-fluoro-5-(2-(2-morpholinoethylamino)-4-(pyridin-4-yl)thiazol-5-yl)phenyl)-3-(4-(trifluoromethyl)phenyl)urea] | ≤ 0.1 | – | 0.1 to 1 |
| CCn1cc(-c2cccc(NC(=O)Nc3ccc(C(F)(F)F)cc3)c2)c(-c2ccncc2)n1 [Example 52, 1-(3-(1-ethyl-3-(pyridin-4-yl)-1H-pyrazol-4-yl)phenyl)-3-(4-(trifluoromethyl)phenyl)urea] | ≤ 0.1 | 0.1 to 1 | ≤ 0.1 |
| Cc1nc(-c2ccnc(N)c2)c(-c2cc(NC(=O)Nc3ccc(C(F)(F)F)cc3)c(F)cc2F)s1 [Example 25, 1-(5-(4-(2-aminopyridin-4-yl)-2-methylthiazol-5-yl)-2,4-difluorophenyl)-3-(4-(trifluoromethyl)phenyl)urea] | ≤ 0.1 | – | 1 to 10 |
| Cc1ccc(NC(=O)Nc2cccc(-c3sc(C)nc3-c3ccncc3)c2)cc1 [Example 1, 1-[3-(2-Methyl-4-pyridin-4-yl-thiazol-5-yl)-phenyl]-3-p-tolyl-urea] | ≤ 0.1 | 1 to 10 | > 10 |
| Cc1nc(-c2ccncc2)c(-c2cccc(NC(=O)Nc3ccc(C(F)(F)F)cc3)c2)s1 [Example 9, 1-(3-(2-methyl-4-(pyridin-4-yl)thiazol-5-yl)phenyl)-3-(4-(trifluoromethyl)phenyl)urea] | ≤ 0.1 | – | 0.1 to 1 |

From US20140221374A1, “RAF KINASE INHIBITORS” (Ruga Corporation, priority 2011, published 2014)
